In this experiment the test system is CD2F1 mice, L1210 leukemia sc, survival T/C. Nature of the experiment: NCI In Vivo Anticancer Drug Screen. Data for tumor model L1210 Leukemia (subcutaneous) in CD2F1 (CDF1) mice. The note with it: endpoint: median survival time, higher = longer survival. In a few lines: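 Read-out: survival or tumor size. Value = treated (T) / vehicle control (C). Transplantable tumor in mice.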

“And” between values parts separate entries of the source, which are not always exact repeats. Identical values can stand only once. Toxic doses and inconclusive results are not listed.

Regarding `NC(Cc1ccccc1)C(=O)OCN1C(=O)C2C3C=CC(C2C1=O)C1C2C(=O)N(COC(=O)C(N)Cc4ccccc4)C(=O)C2C31` (stereo not given), the T/C reads like this: (dose: 21.6 mg/kg/injection, schedule: Q01DX005 (iv), vehicle: other) 107 % of control; (dose: 21.6 mg/kg/injection, schedule: Q01DX009 (ip), vehicle: other) 111 % of control; (dose: 21.6 mg/kg/injection, schedule: Q01DX009 (ip), vehicle: water) 107 % of control and 121 % of control; (dose: 30.9 mg/kg/injection, schedule: Q01DX005 (iv), vehicle: other) 105 % of control; (dose: 30.9 mg/kg/injection, schedule: Q01DX009 (ip), vehicle: other) 112 % of control; (dose: 30.9 mg/kg/injection, schedule: Q01DX009 (ip), vehicle: water) 107 % of control. Further, the T/C reads like this: (dose: 36.0 mg/kg/injection, schedule: Q01DX009 (ip), vehicle: water) 109 % of control; (dose: 44.1 mg/kg/injection, schedule: Q01DX005 (iv), vehicle: other) 111 % of control; (dose: 44.1 mg/kg/injection, schedule: Q01DX009 (ip), vehicle: other) 114 % of control; (dose: 63.0 mg/kg/injection, schedule: Q01DX005 (iv), vehicle: other) 117 % of control; (dose: 90.0 mg/kg/injection, schedule: Q01DX009 (ip), vehicle: other) 177 % of control; (dose: 90.0 mg/kg/injection, schedule: Q01DX009 (ip), vehicle: water) 169 % of control. Besides, the T/C runs as follows: (dose: 100.0 mg/kg/injection, schedule: Q01DX009 (ip), vehicle: water) 211 % of control; (dose: 128.6 mg/kg/injection, schedule: Q01DX009 (ip), vehicle: other) 221 % of control; (dose: 128.6 mg/kg/injection, schedule: Q01DX009 (ip), vehicle: water) 227 % of control; (dose: 216.0 mg/kg/injection, schedule: Q01DX009 (oral), vehicle: water) 122 % of control; (dose: 441.0 mg/kg/injection, schedule: Q01DX009 (oral), vehicle: other) 162 % of control; (dose: 630.0 mg/kg/injection, schedule: Q01DX009 (oral), vehicle: other) 234 % of control. The T/C runs as follows: (dose: 630.0 mg/kg/injection, schedule: Q01DX009 (oral), vehicle: water) 171 % of control; (dose: 900.0 mg/kg/injection, schedule: Q01DX009 (oral), vehicle: water) 270 % of control.

As to `CO[C@@]12[C@H](COC(N)=O)C3=C(C(=O)C(C)=C(N)C3=O)N1C[C@@H]1N[C@@H]12`, the T/C reads like this: (dose: 0.7 mg/kg/injection, schedule: Q01DX Z (sc), vehicle: saline) 100 % of control; (dose: 1.17 mg/kg/injection, schedule: Q01DX Z (sc), vehicle: saline) 100 % of control; (dose: 1.95 mg/kg/injection, schedule: Q01DX Z (sc), vehicle: saline) 100 % of control; (dose: 3.25 mg/kg/injection, schedule: Q01DX Z (sc), vehicle: saline) 108 % of control; (dose: 9.03 mg/kg/injection, schedule: Q01DX Z (sc), vehicle: saline) 116 % of control.
